Data from ChEMBL document CHEMBL1128067, “Isosteric replacement of the indole nucleus by benzothiophene in a series of pyrido[2,3-b]indoles with potential anxiolytic activity” (Bioorg Med Chem Lett, 1995).

Key:
[1] = organism: Rattus norvegicus; assay: Number of animals responding to the above phases out of 8 tested, expressed as Nr/N; assay type: functional
[2] = test system: Rattus norvegicus; assay: Percent change in variable interval unpunished responding phase (VI) after administration of 10 mg/Kg oral dose in rat Geller-Seifter test; assay type: functional
[3] = test system: Rattus norvegicus; assay: Percent change in punished responding phase (FR) after administration of 10 mg/Kg oral dose in rat Geller-Seifter test; assay type: functional
[4] = molecular target: GABA-A receptor; anion channel; assay: In vitro inhibition of [35S]t-butyl-bicyclophosphorothionate (TBPS) binding to Gamma-aminobutyric acid A (GABA-A) receptor; assay type: protein-complex assay, Rattus norvegicus
[5] = organism: Rattus norvegicus; assay: Number of animals responding to the above phases out of 6 tested, expressed as Nr/N; assay type: functional
[6] = test system: Rattus norvegicus; assay: Percent change in variable interval unpunished responding phase (VI) after administration of 20 mg/kg oral dose in rat Geller-Seifter test.; assay type: functional
[7] = molecular target: GABA-A receptor; anion channel; assay: Inhibition of [3H]flunitrazepam binding to GABA-A receptor; assay type: protein-complex assay, Rattus norvegicus
[8] = test system: Rattus norvegicus; assay: Percent change in punished responding phase (FR) after administration of 20 mg/kg oral dose in rat Geller-Seifter test; assay type: functional
[9] = test system: Rattus norvegicus; assay: Percent change in punished responding phase (FR) after administration of 20 mg/Kg oral dose in rat Geller-Seifter test; assay type: functional
[10] = test system: Rattus norvegicus; assay: Percent change in variable interval unpunished responding phase (VI) after administration of 20 mg/Kg oral dose in rat Geller-Seifter test.; assay type: functional
[11] = test system: Rattus norvegicus; assay: Percent change in variable interval unpunished responding phase (VI) after administration of 40 mg/Kg intraperitoneally in rat Geller-Seifter test.; assay type: functional
[12] = test system: Rattus norvegicus; assay: Percent change in punished responding phase (FR) after administration of 40 mg/Kg intraperitoneally in rat Geller-Seifter test; assay type: functional
[13] = test system: Rattus norvegicus; assay: Percent change in punished responding phase (FR) after administration of 20 mg/kg oral dose in rat Geller-Seifter test.; assay type: functional
[14] = organism: Rattus norvegicus; assay: Number of animals responding to the above phases out of 16 tested, expressed as Nr/N; assay type: functional

| SMILES | IC50 [4] | Nr/N [5] | IC50 [7] | further results |
| --- | --- | --- | --- | --- |
| CN1C(=O)CN=C(c2ccccc2)c2cc(Cl)ccc21 [DIAZEPAM] |  |  |  | Nr/N [1]: 7; Change [2]: 10%; Change [3]: 114% |
| CC1CCc2nc3sc4c(c3c(N)c2C1=O)CCCCC4 (stereo unspecified) | 0.37 µM |  |  |  |
| Cn1c2ccccc2c2c(N)c3c(nc21)CCCC3 | > 100 µM |  |  |  |
| CC1CCc2nc3c(c(N)c2C1=O)c1c(n3C)CCCC1 (stereo unspecified) | 2.7 µM | 5 | 18 µM | Change [6]: 1%; Change [8]: 28% |
| CC1CCc2nc3sc4c(c3c(N)c2C1=O)CCC4 (stereo unspecified) | 1.7 µM | 5 |  | Change [9]: 26%; Change [10]: 0% |
| Nc1c2c(nc3sc4c(c13)CCCCC4)CCCC2=O | 0.29 µM |  | > 100 µM |  |
| CC1CCc2nc3sc4c(c3c(N)c2C1=O)CCCC4 (stereo unspecified) | 1.6 µM |  |  |  |
| COC(=O)c1c(C)nc2sc3c(c2c1N)CCCC3 | 7.5 µM |  |  | Nr/N [1]: 8; Change [11]: 0%; Change [12]: 42% |
| CC1CCc2nc3c(c(N)c2C1=O)c1ccccc1n3C (stereo unspecified) |  | 5 | > 100 µM | Change [9]: 52%; Change [10]: 0% |
| Cn1c2ccccc2c2cc3c(nc21)CCCC3=O | 10 µM | 3 | > 100 µM | Change [6]: 2%; Change [13]: 4% |
| COC(=O)c1c(C)nc2c(c(C)c(C)n2C)c1N | 12 µM |  | > 100 µM |  |
| CC1CCc2nc3sc4ccccc4c3c(N)c2C1=O (stereo unspecified) | 0.46 µM | 5 |  | Change [9]: 30%; Change [10]: 0% |
| Cn1c2c(c3c(N)c4c(nc31)CCCC4=O)CCCC2 | 6.3 µM |  |  |  |
| CCOC(=O)c1c(C)nc2c(c1N)c1ccccc1n2C |  |  | > 100 µM | Change [9]: 22%; Nr/N [14]: 12; Change [10]: -3% |
